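A five-concentration, 48-hour dose response in 96-well plates underlies each endpoint, interpolated linearly between surrounding concentrations. The concentration for 50% growth inhibition is given as GI50. Definition used: TGI = concentration required for complete inhibition of growth.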
How the values were obtained:
Assay in all cases: NCI-60 cell line screen, 48 h
COLO 205 colon = tested on: COLO 205 colon
OVCAR-8 ovarian = tested on: OVCAR-8 ovarian
SK-OV-3 ovarian = tested on: SK-OV-3 ovarian
OVCAR-5 ovarian = tested on: OVCAR-5 ovarian
SN12C renal = tested on: SN12C renal
A549 NSCLC = tested on: A549 NSCLC
DU-145 prostate = tested on: DU-145 prostate
HL-60(TB) leukemia = tested on: HL-60(TB) leukemia
A498 renal = tested on: A498 renal
SW-620 colon = tested on: SW-620 colon

| SMILES | GI50 (COLO 205 colon) | TGI (COLO 205 colon) | GI50 (OVCAR-8 ovarian) | TGI (OVCAR-8 ovarian) | GI50 (SK-OV-3 ovarian) | TGI (SK-OV-3 ovarian) | GI50 (OVCAR-5 ovarian) | TGI (OVCAR-5 ovarian) | GI50 (SN12C renal) | TGI (SN12C renal) | GI50 (A549 NSCLC) | TGI (A549 NSCLC) | GI50 (DU-145 prostate) | TGI (DU-145 prostate) | GI50 (HL-60(TB) leukemia) | TGI (HL-60(TB) leukemia) | GI50 (A498 renal) | TGI (A498 renal) | GI50 (SW-620 colon) | TGI (SW-620 colon) |
| --- | --- | --- | --- | --- | --- | --- | --- | --- | --- | --- | --- | --- | --- | --- | --- | --- | --- | --- | --- | --- |
| CCN1C(=O)N(CC)C2C1NN=c1s/c(=C3\C(=O)N(CC(C)C)c4ccccc43)c(=O)n12 (stereo not drawn) | 0.401 µM | 2.32 µM | 1.33 µM | > 100 µM | 0.493 µM | 39.8 µM | 2.27 µM | > 100 µM | 1.95 µM | > 100 µM | 0.957 µM | > 100 µM | 0.777 µM | > 30.4 µM | 0.34 µM | 1.64 µM | 0.197 µM | 0.875 µM | 0.444 µM | > 100 µM |
| CCC1=C[C@@H]2CN(C1)Cc1c([nH]c3ccccc13)[C@@](C(=O)OC)(c1cc3c(cc1OC)N(C=O)[C@H]1[C@@](O)(C(=O)OC)[C@H](OC(C)=O)[C@]4(CC)[C@@H]5C[C@@H]5CN5CC[C@]31[C@@H]54)C2 | < 0.000625 µM | 0.00122 µM | 0.00268 µM | > 6.25 µM | < 0.000625 µM | – | 0.00255 µM | > 6.25 µM | 0.0228 µM | > 6.25 µM | 0.003 µM | > 6.25 µM | < 0.000625 µM | – | < 0.000625 µM | < 0.000625 µM | 0.00221 µM | 0.0794 µM | 0.000656 µM | > 6.25 µM |
| COc1ccc(C2=NN(C(=O)COc3ccc(Cl)cc3)C(O)(c3cc(F)c(Cl)cc3Cl)C2)cc1OC (stereo not drawn) | 1.63 µM | 3.41 µM | 5.7 µM | 14.1 µM | 16.1 µM | 30.6 µM | 5.91 µM | 13.3 µM | 3.65 µM | 13.3 µM | 6.24 µM | 18.7 µM | 1.25 µM | 3.73 µM | 2.68 µM | 7.86 µM | 13.1 µM | 26.2 µM | 0.869 µM | 2.58 µM |
| Fc1ccc(Oc2nccc(-c3c(-c4ccc(F)cc4)ncn3C3CCNCC3)n2)cc1 | > 25 µM | > 25 µM | > 25 µM | > 25 µM | > 23.9 µM | > 25 µM | > 25 µM | > 25 µM | > 19.6 µM | > 25 µM | > 25 µM | > 25 µM | > 25 µM | > 25 µM | > 25 µM | > 25 µM | > 25 µM | > 25 µM | > 25 µM | > 25 µM |
| COc1cc(NC(=O)c2cc(OC)c3ccn(C)c3c2)cc2c1C[C@]1(C)CC[C@@H](O)C(C)(C)[C@H]1O2 | 6.12 µM | 51.5 µM | 26 µM | > 100 µM | 6.41 µM | > 100 µM | 27.3 µM | > 100 µM | 27.9 µM | > 100 µM | 10.3 µM | > 100 µM | 9.08 µM | > 100 µM | 3.49 µM | 14.7 µM | 2.85 µM | 7.15 µM | 11.2 µM | > 100 µM |
| Cc1ncc([N+](=O)[O-])n1CCNS(=O)(=O)CCCn1ccnc1[N+](=O)[O-] | – | > 100 µM | – | > 100 µM | – | > 100 µM | – | > 100 µM | – | > 100 µM | – | > 100 µM | – | > 100 µM | – | > 100 µM | – | > 100 µM | – | > 100 µM |
